Like-named read-outs stand apart in the source and are kept apart here.
Key:
Assay type in all cases: in vivo, humans
[1] = tested on: bitter taste of an aqueous solution of KCl; assay: Sip and spit bitterness rating of aqueous KCl test solutions; settings: aqueous KCl 4.85 g/L, 1% EtOH, bitterness scored 0-15 vs KCl standard, dash = none of the tested conc.; for minimal effective concentration: Homo sapiens
Procedure: An amount of this stock compound solution is then added to an aqueous KCl solution. Enough EtOH is then added to the resulting stock compound/KCl solution so that the final KCl test solution contains 1% EtOH. KCl solution standards were similarly prepared by dissolving various amounts of KCl in water and ethanol without adding any test compound.
The effect of the test compounds an the perception of the bitter taste of an aqueous solution of KCl in humans was evaluated using a “sip and spit” test as follows.
(§1) A set of KCl solution standards was developed and each standard solution was assigned a bitterness taste score of 0-15 (corresponding to aqueous KCl concentrations of 0 mM-120 mM). Panelists were trained to recognize these standards. In addition, before each day of testing, panelists were tested to see if they could determine differences in taste between the standard solutions. If a panelist was unable to recognize a change in KCl concentration, they were excluded from the panel for that day.
(§2) In a blind taste test, panelists were asked to compare the bitter taste of a small quantity (e.g., 8 ml) of each of the KCl Test Solutions to the taste of a KCl solution standard, without swallowing (see, e.g., Table 1). Specifically, panelists were asked to rate the bitterness of each KCl Test Solution on a scale of 0-15 using the same scale developed for the KCl solution standards. Each sample was tested in 2-4 discrete taste test experiments. Panelists were asked to rinse with water, eat a cracker, and wait approximately 10 minutes between samples.

[2] = tested on: bitter taste of KCl foodstuff slurries; assay: Two-alternative forced choice (2AFC) sip and spit test of KCl turkey foodstuff slurries; settings: Homo sapiens, turkey slurry, 1.6% KCl, 2AFC vs KCl slurry standard, dash = none of the tested conc.
Procedure: Edible KCl food compositions (“KCl test foodstuff slurries”) were prepared as follows. Dehydrated, salt-free turkey powder was weighed and mixed with various amounts of KCl and/or NaCl and then solubilized with boiling water to create a homogenized solubilized turkey slurry. Varying amounts of the test compounds were dissolved in an amount of ethanol or water (depending on the solubility of the compound) to create a 5 mg/mL stock compound solution. An amount of this stock compound solution was then added to the turkey slurry. Enough EtOH is then added to the resulting stock compound/turkey slurry so that the slurry contains 1% EtOH. The slurry was again homogenized by boiling and mixing and allowed to cool to yield the final KCl test foodstuff slurry for taste testing KCl foodstuff slurry standards were similarly prepared without any test compound.
The effect of the test compounds on the perception of the bitter taste of KCl foodstuff slurries in humans was evaluated using a two-alternative-forced-choice “sip and spit” test as follows.
In a blind taste test, panelists received two portions of turkey slurry—one portion being the KCl foodstuff slurry standard and the other being one of the KCl test foodstuff slurries (each prepared as described in Example 5). The panelists tasted each of the portions by sipping and spitting. Each sample was tested in 2-4 discrete taste test experiments. Panelists were asked to rinse with water, eat a cracker, and wait about 10 minutes between samples. In each case, the panelists were asked to compare the bitter taste of the two turkey samples to each other (i.e., panelists were asked to indicate which sample was less bitter).

[3] = tested on: bitter taste of an aqueous solution of potassium lactate; assay: Sip and spit bitterness rating of aqueous potassium lactate test solutions; settings: Homo sapiens; aqueous potassium lactate 41 g/L, 1% EtOH; dash = none of the tested conc.; read-out: Conc. Where Decrease in Bitter Taste Was Discerned
Procedure: as §1, §2
Edible potassium lactate solution compositions (“potassium lactate test solutions”) were prepared by first dissolving varying amounts of the test compounds in an amount of ethanol or water (depending on the solubility of the compound) to create a 5 mg/mL stock compound solution. An amount of this stock compound solution is then added to an aqueous potassium lactate solution. Enough EtOH is then added to the resulting stock compound/potassium lactate solution so that the final potassium lactate test solution contains 1% EtOH. Potassium lactate solution standards were similarly prepared by dissolving various amounts of potassium lactate in water and ethanol without adding any test compound.
The effect of the test compounds on the perception of the bitter taste of an aqueous solution of potassium lactate in humans was evaluated using the “sip and spit” test described in Example 2.

[4] = tested on: bitter taste of an aqueous solution of KCl; assay: Latin Square-2AFC sip and spit test of aqueous KCl solutions; settings: Homo sapiens; aqueous KCl 4.85 g/L, Latin Square-2AFC vs KCl standard; dash = none of the tested conc.; read-out: Conc. at Which At Least 50% of Panelist Discerned Decrease in Bitter Taste and p ≦ 0.1
Procedure: The effect of the test compounds on the perception of the bitter taste of an aqueous solution of KCl in humans was evaluated using a “sip and spit” test using a Latin Square-2AFC testing method as follows.
In a blind taste test, panelists were asked to compare the bitter taste of a small quantity (e.g., 8 ml) of a KCl Test Solution to the taste of a KCl solution standard (prepared as described in Example 1), without swallowing. NaCl solution standards were prepared as described in Example 1.
In order to eliminate any effects of sample order, a complete Latin Square design was employed so that each possible order of sample presentation was utilized across subjects. Each sample was tested in several discrete taste test experiments. Panelists were asked to rinse with water, eat a cracker, and wait about 10 minutes between samples. In each case, the panelists were asked to choose the sample which tasted “less bitter.” Illustrative results of the aqueous solution Latin Square-2AFC testing are presented in Table 5.

[5] = read-out: Conc. Where Decrease in Bitter Taste Discerned and p ≦ 0.1
[6] = read-out: Conc. Where Decrease in Bitter Taste Was Discerned
[7] = read-out: Conc. at Which At Least 50% of Panelist Discerned Decrease in Bitter Taste

With C/C=C/C(=O)C1=C(C)CCCC1(C)C [Compound 1] the minimal effective concentration [1, 5] was 0.1 µg/mL and the minimal effective concentration [1, 6] was 0.1 µg/mL.

CC(=O)CCC1=C(C)CCCC1(C)C [Compound 4] gave a minimal effective concentration [1, 5] of 1 µg/mL.

CC(=O)/C=C/C1C(C)=CCCC1(C)C (stereo not shown) [Compound 5] gave a minimal effective concentration [1, 5] of 0.1 µg/mL and a minimal effective concentration [1, 6] of 0.1 µg/mL.

In the case of CC(=O)CCC1C(C)=CCCC1(C)C (stereo not shown) [Compound 6], the minimal effective concentration [1, 5] is reported as 1 µg/mL.

CC(C)=CCCC(C)CCO (stereo not shown) [Compound 7] showed a minimal effective concentration [1, 6] of 10 µg/mL.

CC(C)=CCCC(C)CCOC=O (stereo not shown) [Compound 8] was tested, and the minimal effective concentration [1, 6] was 10 µg/mL and the minimal effective concentration [2, 7] was 1 µg/mL.

For CC(=O)OCCC(C)CCC=C(C)C (stereo not shown) [Compound 9], the minimal effective concentration [1, 6] was 10 µg/mL.

CCCCC(=O)OCCC(C)CCC=C(C)C (stereo not shown) [Compound 12] gave a minimal effective concentration [1, 6] of 10 µg/mL.

CC(C)=CCCC(C)CC=O (stereo not shown) [Compound 13] showed a minimal effective concentration [1, 6] of 1 µg/mL.

With CC(CC=O)CCCC(C)(C)O (stereo not shown) [Compound 17] the minimal effective concentration [1, 6] was 1 µg/mL.

COC(CC(C)CCCC(C)(C)O)OC (stereo not shown) [Compound 18] gave a minimal effective concentration [1, 6] of 10 µg/mL.

Compound CC(=O)OC/C=C(\C)CCC=C(C)C [Compound 21] has a minimal effective concentration [1, 6] of 10 µg/mL and a minimal effective concentration [2, 7] of 10 µg/mL.

Work on CCCC(=O)OC/C=C(\C)CCC=C(C)C [Compound 23] yielded a minimal effective concentration [1, 5] of 1 µg/mL.

In the case of CC(C)=CCC/C(C)=C/COC(=O)CC(C)C [Compound 24], the minimal effective concentration [1, 6] is reported as 10 µg/mL.

For CC(C)=CCC/C(C)=C\COC(=O)CC(C)C [Compound 25], the minimal effective concentration [1, 5] was 1 µg/mL.

CC(=O)CC/C=C(\C)CCC=C(C)C [Compound 29] was tested, and the minimal effective concentration [1, 6] was 1 µg/mL.

CCCC(=O)OC/C=C(/C)CCC=C(C)C [Compound 33] was tested, and the minimal effective concentration [1, 6] was 1 µg/mL.

CC(=O)Oc1c(C)c(C)c2c(c1C)CC[C@@](C)(CCCC(C)CCCC(C)CCCC(C)C)O2 (stereo partly shown) [Compound 45] gave a minimal effective concentration [1, 6] of 1 µg/mL.

In the case of Cc1cc(O)cc2c1O[C@](C)(CCC[C@H](C)CCC[C@H](C)CCCC(C)C)CC2 [Compound 49], the minimal effective concentration [1, 6] is reported as 10 µg/mL.

Compound CC(=O)Oc1c(C)c(C)c2c(c1C)CCC(C)(CCCC(C)CCCC(C)CCCC(C)C)O2 (stereo not shown) [Compound 50] has a minimal effective concentration [1, 6] of 1 µg/mL.

With O=C(O)c1ccccc1 [Compound 54] the “Conc. Where Decrease in Bitter Taste Was Discerned” value [1] was 10 ppm.

In the case of CCCOC(=O)c1ccccc1 [Compound 56], the minimal effective concentration [1, 6] is reported as 1 µg/mL.

In the case of O=C(O)c1ccc(O)cc1 [Compound 58], the minimal effective concentration [1, 5] is reported as 10 µg/mL and the minimal effective concentration [1, 6] is reported as 10 µg/mL.

O=C(O)c1ccc(O)cc1O [Compound 59] gave a minimal effective concentration [1, 6] of 1 µg/mL.

Work on COC(=O)c1ccc(O)cc1 [Compound 61] yielded a minimal effective concentration [1, 6] of 1 µg/mL.

For CCOC(=O)c1ccc(O)cc1 [Compound 62], the minimal effective concentration [1, 6] was 10 µg/mL.

With CCCCOC(=O)c1ccc(O)cc1 [Compound 63] the minimal effective concentration [1, 5] was 1 µg/mL and the minimal effective concentration ([2]; read-out: Conc. at Which At Least 50% of Panelist Discerned Decrease in Bitter Taste and p ≦ 0.1) was 30 µg/mL.

Work on COC(=O)c1ccccc1OC [Compound 68] yielded a minimal effective concentration [1, 6] of 10 µg/mL.

Compound CC(O)c1ccccc1 (stereo not shown) [Compound 71] has a minimal effective concentration [1, 5] of 1 µg/mL.

CC(C)CC(=O)O[C@@H]1C[C@@H]2CC[C@@]1(C)C2(C)C [Compound 78] gave a minimal effective concentration [1, 6] of 1 µg/mL.

CC(=O)OC1C2(C)CCC(C2)C1(C)C (stereo not shown) [Compound 81] gave a minimal effective concentration [1, 6] of 10 µg/mL.

CC(=O)O[C@@H]1C[C@@H]2CC[C@@]1(C)C2(C)C [Compound 88] showed a minimal effective concentration [1, 5] of 1 µg/mL and a minimal effective concentration [2, 7] of 1 µg/mL.

C[C@@H]1[C@@H](O)C[C@H]2C[C@@H]1C2(C)C [Compound 90] showed a minimal effective concentration [1, 6] of 1 µg/mL.

Compound CC1(C)[C@H]2CC[C@H](CO)[C@@H]1C2 [Compound 92] has a minimal effective concentration [1, 5] of 1 µg/mL and a minimal effective concentration [1, 6] of 1 µg/mL.

For CC(=O)OCC1=CC[C@@H]2C[C@H]1C2(C)C [Compound 94], the minimal effective concentration [1, 6] was 10 µg/mL.

For O=C1C[C@@H](c2ccccc2)Oc2cc(O)cc(O)c21 [Compound 97], the minimal effective concentration [1, 6] was 1 µg/mL.

With COc1ccc(-c2cc(=O)c3c(OC)c(OC)c(OC)cc3o2)cc1 [Compound 99] the minimal effective concentration [1, 6] was 1 µg/mL.

COc1cc(OC)c2c(=O)cc(-c3ccccc3)oc2c1 [Compound 100] gave a minimal effective concentration [1, 6] of 10 µg/mL.

For O=c1cc(-c2ccccc2)oc2cc(O)ccc12 [Compound 101], the minimal effective concentration [1, 6] was 1 µg/mL.

With COc1cc(-c2oc3cc(O)cc(O)c3c(=O)c2O)ccc1O [Compound 102] the minimal effective concentration [1, 5] was 1 µg/mL, the minimal effective concentration [1, 6] was 1 µg/mL and the minimal effective concentration [3] was 1 µg/mL. The minimal effective concentration [2, 7] was 10 µg/mL.

Oc1cc(O)c2c(c1)O[C@H](c1ccc(O)c(O)c1)[C@@H](O)C2 [Compound 104] gave a minimal effective concentration [1, 6] of 10 µg/mL.

In the case of Oc1cc(O)c2c(c1)O[C@@H](c1cc(O)c(O)c(O)c1)[C@H](O)C2 [Compound 106], the minimal effective concentration [1, 6] is reported as 1 µg/mL.

For O=C(O[C@@H]1Cc2c(O)cc(O)cc2O[C@@H]1c1ccc(O)c(O)c1)c1cc(O)c(O)c(O)c1 [Compound 107], the minimal effective concentration [1, 6] was 10 µg/mL.

In the case of O=C(O[C@@H]1Cc2c(O)cc(O)cc2O[C@@H]1c1cc(O)c(O)c(O)c1)c1cc(O)c(O)c(O)c1 [Compound 108], the minimal effective concentration [1, 6] is reported as 1 µg/mL.

For O=c1c(O)c(-c2ccc(O)c(O)c2)oc2cc(O)cc(O)c12 [Compound 111], the minimal effective concentration [1, 5] was 10 µg/mL and the minimal effective concentration [2, 7] was 1 µg/mL.

With O=C(/C=C/C=C/c1ccc2c(c1)OCO2)N1CCCCC1 [Compound 113] the minimal effective concentration [1, 6] was 1 µg/mL.

Work on O=Cc1ccc2c(c1)OCO2 [Compound 114] yielded a minimal effective concentration [4] of 25 µg/mL.

CC(C)C(=O)OCc1ccc2c(c1)OCO2 [Compound 117] gave a minimal effective concentration [1, 6] of 10 µg/mL.

For C/C=C/c1ccc2c(c1)OCO2 [Compound 118], the minimal effective concentration [3] was 1 µg/mL.

C=C1CC[C@H]2O[C@]2(C)CC[C@@H]2[C@@H]1CC2(C)C [Compound 121] was tested, and the minimal effective concentration [1, 5] was 40 µg/mL and the minimal effective concentration [1, 6] was 40 µg/mL.

Work on COc1ccc2c(c1)[nH]c1c(C)nccc12 [Compound 130] yielded a minimal effective concentration [1, 6] of 40 µg/mL.

Compound COc1c(C(=O)CC(=O)c2ccccc2)ccc2occc12 [Compound 132] has a minimal effective concentration [1, 6] of 1 µg/mL.

O=C1CC(C(=O)O)C(C(=O)O)O1 (stereo not shown) [Compound 133] showed a minimal effective concentration [1, 5] of 2 µg/mL and a minimal effective concentration [1, 6] of 2 µg/mL.

From US9872514B2, “Compounds, compositions, and methods for reducing or eliminating bitter taste” (Chromocell Corporation, priority 2010, dated 2018)
